Measured values taken from patent US20240241099A1, “METHOD FOR IDENTIFYING PI3 KINASE-ALPHA INHIBITORS” (UNIVERSITÄT BASEL, priority 2021, published 2024).
pIC50: −log10 of the molar value.

Assays:
[1] = tested on: AktSer473 phosphorylation in SKOV3 ovarian cancer cells; experiment: Cellular washout study in SKOV3 cells, P-AktSer473 by immunoblot; format: cell-based; details: 2.5 μM for 2 hours, then washout
Procedure: (§1) The experiments were performed in triplicate; CNX-1351 was used as positive control (irreversible inhibitor) and PQR514 as negative control (reversible inhibitor). (b) Metabolic stability of 19, 22 and CNX-1351 using rat liver microsomes. The time-dependent loss of test items (1 μM) with liver microsomes (0.5 mg microsomal protein/mL) and the percentages of test item remaining after 60 minutes of incubation were measured, (n=2).
The experiments were performed in triplicate; CNX-1351 was used as positive control (irreversible inhibitor) and PQR514 as negative control (reversible inhibitor).
(§2) The library of acrylamide-containing compounds was evaluated for PI3K signaling in SKOV3 ovarian cancer cells. […] Inhibition of AktSer473 phosphorylation measured by immunoblot analysis was used as an indicator of inhibition of PI3K signaling. Cells were incubated with the drugs (2.5 μM each) for 2 hours.
as §2, with “enone-containing” for “acrylamide-containing”

[2] = tested on: PKB phosphorylation on Ser473 in SKOV3 cells; experiment: In-cell Western assay of PKB Ser473 phosphorylation in SKOV3 cells; format: cell-based; details: n = 3, read-out: pPKB S473 IC50
PI3Kα = PI3Kα (Homo sapiens, UniProt P42336); experiment: TR-FRET tracer displacement / time-dependent inhibition (IC50 shift) assay; format: binding
PI3Kα, sequence (P42336 whole entry): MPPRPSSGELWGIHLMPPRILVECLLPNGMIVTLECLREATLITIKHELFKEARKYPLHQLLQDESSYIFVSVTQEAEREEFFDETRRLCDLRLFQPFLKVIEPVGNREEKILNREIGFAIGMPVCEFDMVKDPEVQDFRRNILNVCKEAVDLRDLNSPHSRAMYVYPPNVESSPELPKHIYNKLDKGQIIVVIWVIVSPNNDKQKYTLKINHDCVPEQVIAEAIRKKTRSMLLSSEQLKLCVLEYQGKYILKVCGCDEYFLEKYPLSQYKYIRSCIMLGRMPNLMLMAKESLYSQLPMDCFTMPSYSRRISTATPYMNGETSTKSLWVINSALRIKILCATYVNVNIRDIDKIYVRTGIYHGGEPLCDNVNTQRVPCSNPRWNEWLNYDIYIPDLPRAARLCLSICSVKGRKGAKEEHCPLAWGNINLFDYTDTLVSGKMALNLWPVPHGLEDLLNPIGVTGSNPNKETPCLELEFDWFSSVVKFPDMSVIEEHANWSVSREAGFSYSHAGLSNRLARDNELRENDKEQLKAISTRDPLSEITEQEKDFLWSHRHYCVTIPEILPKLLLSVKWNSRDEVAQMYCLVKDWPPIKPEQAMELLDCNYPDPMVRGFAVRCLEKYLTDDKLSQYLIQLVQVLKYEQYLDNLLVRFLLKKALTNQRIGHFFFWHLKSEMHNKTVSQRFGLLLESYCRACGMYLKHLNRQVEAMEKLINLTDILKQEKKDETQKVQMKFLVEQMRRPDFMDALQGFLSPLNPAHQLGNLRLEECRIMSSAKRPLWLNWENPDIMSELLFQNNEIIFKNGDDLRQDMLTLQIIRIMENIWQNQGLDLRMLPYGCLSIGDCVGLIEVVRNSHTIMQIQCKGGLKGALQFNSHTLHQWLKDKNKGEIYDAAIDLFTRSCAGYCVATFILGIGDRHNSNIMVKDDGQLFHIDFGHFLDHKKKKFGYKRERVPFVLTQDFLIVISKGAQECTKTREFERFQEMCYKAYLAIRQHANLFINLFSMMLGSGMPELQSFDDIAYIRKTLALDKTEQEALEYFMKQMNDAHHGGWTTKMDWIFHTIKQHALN
PI3Kα, sequence (P27986 whole entry partner): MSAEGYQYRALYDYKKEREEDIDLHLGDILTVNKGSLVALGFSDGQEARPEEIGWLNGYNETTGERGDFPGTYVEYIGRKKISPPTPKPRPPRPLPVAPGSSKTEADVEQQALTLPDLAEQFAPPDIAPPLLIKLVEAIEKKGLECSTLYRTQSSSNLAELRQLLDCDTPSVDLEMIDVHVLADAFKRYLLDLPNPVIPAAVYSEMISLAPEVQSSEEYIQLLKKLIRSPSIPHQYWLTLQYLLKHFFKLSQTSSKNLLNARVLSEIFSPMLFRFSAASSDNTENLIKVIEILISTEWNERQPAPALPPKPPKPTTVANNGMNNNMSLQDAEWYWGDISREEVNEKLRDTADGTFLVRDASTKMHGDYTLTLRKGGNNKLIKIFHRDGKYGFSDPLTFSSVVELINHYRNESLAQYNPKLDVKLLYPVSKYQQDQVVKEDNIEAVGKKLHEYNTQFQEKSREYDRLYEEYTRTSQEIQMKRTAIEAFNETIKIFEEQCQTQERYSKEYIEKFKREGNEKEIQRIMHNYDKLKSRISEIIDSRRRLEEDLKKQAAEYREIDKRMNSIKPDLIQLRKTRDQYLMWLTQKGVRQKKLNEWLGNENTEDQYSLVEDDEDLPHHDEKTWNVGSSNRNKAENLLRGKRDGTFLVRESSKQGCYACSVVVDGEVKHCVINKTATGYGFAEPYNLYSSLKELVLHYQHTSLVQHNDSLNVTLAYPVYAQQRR
Procedure: The B-methyl substituted enone (2) and its corresponding moderately electrophilic derivative, β,β-dimethyl enone (3) were selected to explore the target space. A collection of compounds with pairwise matched linkers but either fast (2, 10-12) or moderate (3, 13-15) reacting Michael acceptors were synthesized (FIG. 3A). A time-dependent inhibition (IC50 shift) assay with five pre-incubation times was designed to identify covalent, time-dependent inhibitors. For compounds bearing a fast-reacting warhead (2, 10-12) a significant IC50 shift was observed also for compounds having their Michael acceptor at >4 Å from the cysteine thiol (FIG. 3E). […] The increased efficiency in covalent bond formation for 12 is due to the irreversible binding rather than an improvement in reversible affinity (see Ki values in FIG. 3D). […]
The library was tested for cellular potency on inhibition of PKB phorphorilation, considered as an indicator of inhibition of PI3K signaling. Time-resolved fluorescence resonance (TR-FRET) tracer displacement assay was used to determine the rate constant for irreversible inactivation (kinact) and the second order rate constant typically used to characterize the covalent binding of irreversible inhibitors to the target protein (kinact/Ki). […]

[3] = Metabolic stability in rat liver microsomes; format: in vitro ADME; details: rat liver microsomes 0.5 mg protein/mL, 1 μM, 60 minutes
Procedure: as §1
The metabolic stability of 19, 22 and CNX-1351 was evaluated in vitro in rat liver microsomes.

## CC(C)=CC(=O)CCC(=O)N1CCN(Cc2cc3nc(-c4cccc5[nH]ncc45)nc(N4CCOCC4)c3s2)CC1 [CNX-1351]
[1]
  P-AktSer473 signaling after drug washout: prolonged inhibition
[2]
  pIC50: 6.54
PI3Kα; TR-FRET efficiency of covalent bond formation
  kinact/Ki, [nM^−1s^−1]: 1.73e-05 nM⁻¹ s⁻¹
PI3Kα; TR-FRET rate constant for irreversible inactivation
  kinact, [s^−1]: 0.000657 s⁻¹
[3]
  metabolic stability: rapidly metabolized

## Nc1ncc(-c2nc(N3CCOCC3)nc(N3CCOCC3)n2)c(C(F)F)n1 [PQR514]
[1]
  P-AktSer473 signaling after drug washout: immediately recovered
